The source made the active and inactive calls. No cut-off for these calls is given here.
Experiments:
Mus musculus [1] = assay: Anticonvulsant activity in ip dosed Mus musculus (mouse) assessed as protection against maximal electroshock-induced seizure after 0.5 hr; format: functional; conditions: read-out: MED
Mus musculus [2] = assay: Antidepressant activity in Mus musculus (mouse) assessed as immobility time at 100 mg/kg, ip administered 60 min before test measured during last 4 min of 6 min testing period; format: functional; conditions: route intraperitoneal
Mus musculus [3] = assay: Anticonvulsant activity in ip dosed Mus musculus (mouse) assessed as protection against subcutaneous pentylenetetrazole-induced seizure after 4 hr; format: functional; conditions: read-out: MED
Mus musculus [4] = assay: Anticonvulsant activity in ip dosed Mus musculus (mouse) assessed as protection against subcutaneous pentylenetetrazole-induced seizure after 0.5 hr; format: functional; conditions: read-out: MED
Mus musculus [5] = assay: Neurotoxicity in Mus musculus (mouse) assessed as motor impairment at 300 mg/kg, ip after 0.5 hr by rotorod test; format: toxicity, organism-based; set-up: dose 300 mg/kg, route intraperitoneal; conditions: in vivo
Mus musculus [6] = assay: Anticonvulsant activity in ip dosed Mus musculus (mouse) assessed as protection against maximal electroshock-induced seizure after 4 hr; format: functional; conditions: read-out: MED
Mus musculus [7] = assay: Neurotoxicity in ip dosed Mus musculus (mouse) assessed as motor impairment after 4 hr by rotorod test; format: toxicity, organism-based; conditions: in vivo
[8] = Octanol-phosphate buffer partition coefficient, log P of the compound; format: physicochemical
Mus musculus [9] = assay: Anticonvulsant activity in Mus musculus (mouse) assessed as protection against subcutaneous pentylenetetrazole-induced seizure at 300 mg/kg, ip after 0.5 hr; format: functional, organism-based; set-up: dose 300 mg/kg
Mus musculus [10] = assay: Anticonvulsant activity in Mus musculus (mouse) assessed as protection against subcutaneous pentylenetetrazole-induced seizure at 300 mg/kg, ip after 4 hr; format: functional, organism-based; set-up: dose 300 mg/kg
Mus musculus [11] = assay: Neurotoxicity in ip dosed Mus musculus (mouse) assessed as motor impairment after 0.5 hr by rotorod test; format: toxicity, organism-based; conditions: in vivo
Mus musculus [12] = assay: Anticonvulsant activity in Mus musculus (mouse) assessed as protection against maximal electroshock-induced seizure at 300 mg/kg, ip after 0.5 hr; format: functional, organism-based; set-up: dose 300 mg/kg
Mus musculus [13] = assay: Anticonvulsant activity in Mus musculus (mouse) assessed as protection against maximal electroshock-induced seizure at 300 mg/kg, ip after 4 hr; format: functional, organism-based; set-up: dose 300 mg/kg
Mus musculus [14] = assay: Neurotoxicity in Mus musculus (mouse) assessed as motor impairment at 300 mg/kg, ip after 4 hr by rotorod test; format: toxicity, organism-based; set-up: dose 300 mg/kg, route intraperitoneal; conditions: in vivo

Structure (SMILES) | logP [8] | minimal effective dose (Mus musculus [1]) [mg/kg] | Time (Mus musculus [2]) [s] | minimal effective dose (Mus musculus [3]) [mg/kg] | minimal effective dose (Mus musculus [4]) [mg/kg] | Activity (Mus musculus [5]) | minimal effective dose (Mus musculus [6]) [mg/kg] | MED (Mus musculus [7]) [mg/kg] | Activity (Mus musculus [9]) | Activity (Mus musculus [10]) | MED (Mus musculus [11]) [mg/kg] | Activity (Mus musculus [12]) | Activity (Mus musculus [13]) | Activity (Mus musculus [14])
CC(C)(C)NCC(=O)Nc1nc2ccc(Cl)cc2s1 | 3.02 | 30 | 129 | 300 | 100 | Non-toxic | 100 | 300 | – | – | – | – | – | –
O=C(CN1CCOCC1)Nc1nc2ccc(Cl)cc2s1 | 2.32 | 30 | 140 | 100 | 100 | Non-toxic | 30 | – | – | – | – | – | – | Non-toxic
O=C(CN(c1ccccc1)c1ccccc1)Nc1nc2ccc(Cl)cc2s1 | 6.12 | 300 | 196 | – | – | – | – | – | inactive | inactive | 300 | – | inactive | Non-toxic
NC(=O)N1c2ccccc2C=Cc2ccccc21 [CARBAMAZEPINE] | – | 30 | 179 | 100 | 100 | – | 100 | 300 | – | – | 100 | – | – | –
O=C1NC(=O)C(c2ccccc2)(c2ccccc2)N1 [PHENYTOIN] | – | 30 | – | – | – | – | 30 | 100 | inactive | inactive | 100 | – | – | –
O=C(Cn1ccnc1)Nc1nc2ccc(Cl)cc2s1 | 2.14 | 30 | 137 | 100 | 100 | Non-toxic | 30 | – | – | – | – | – | – | Non-toxic
O=C(CN1CCCCC1)Nc1nc2ccc(Cl)cc2s1 | 3.16 | 30 | 145 | – | 100 | Non-toxic | 100 | 300 | – | inactive | – | – | – | –
O=C(Cn1ccc2ccccc21)Nc1nc2ccc(Cl)cc2s1 | 4.62 | 100 | 152 | 300 | – | – | 300 | 300 | inactive | – | 100 | – | – | –

The next lines start with results.

logP [8] | Structure (SMILES) | minimal effective dose (Mus musculus [1]) [mg/kg] | Time (Mus musculus [2]) [s] | minimal effective dose (Mus musculus [3]) [mg/kg] | minimal effective dose (Mus musculus [4]) [mg/kg] | Activity (Mus musculus [5]) | minimal effective dose (Mus musculus [6]) [mg/kg] | MED (Mus musculus [7]) [mg/kg] | Activity (Mus musculus [9]) | Activity (Mus musculus [10]) | MED (Mus musculus [11]) [mg/kg] | Activity (Mus musculus [12]) | Activity (Mus musculus [13]) | Activity (Mus musculus [14])
5.24 | CN(C)c1ccc(/C=N/NC(=S)Nc2nc3ccc(Cl)cc3s2)cc1 | – | 172 | – | – | – | – | 100 | inactive | inactive | 100 | inactive | inactive | –
5.22 | Fc1ccc(/C=N/NC(=S)Nc2nc3ccc(Cl)cc3s2)cc1 | 30 | 188 | 100 | 100 | – | 30 | 100 | – | – | 100 | – | – | –
4.78 | Oc1ccc(/C=N/NC(=S)Nc2nc3ccc(Cl)cc3s2)cc1 | 100 | 169 | – | 100 | Non-toxic | – | 100 | – | inactive | – | – | inactive | –
4.24 | O=C(CNc1ccc(Cl)cc1)Nc1nc2ccc(Cl)cc2s1 | 100 | 161 | – | – | Non-toxic | – | 100 | inactive | inactive | – | – | inactive | –
4.68 | O=[N+]([O-])c1ccc(/C=N/NC(=S)Nc2nc3ccc(Cl)cc3s2)cc1 | 100 | 157 | 300 | 300 | – | – | 300 | – | – | 300 | – | inactive | –
5.46 | S=C(N/N=C/c1ccccc1Cl)Nc1nc2ccc(Cl)cc2s1 | 300 | 177 | – | – | Non-toxic | – | 100 | inactive | inactive | – | – | inactive | –
5.16 | COc1ccc(/C=N/NC(=S)Nc2nc3ccc(Cl)cc3s2)cc1 | – | 181 | – | – | – | 300 | 300 | inactive | inactive | 100 | inactive | – | –
3.88 | O=C(CNc1ccc(F)cc1)Nc1nc2ccc(Cl)cc2s1 | 100 | 169 | 300 | 100 | Non-toxic | 100 | – | – | – | – | – | – | Non-toxic
4.86 | S=C(N/N=C/c1ccccc1)Nc1nc2ccc(Cl)cc2s1 | – | 162 | – | – | – | 300 | 300 | inactive | inactive | 300 | inactive | – | –
5.52 | S=C(N/N=C/c1ccc(Cl)cc1)Nc1nc2ccc(Cl)cc2s1 | 300 | 191 | – | – | – | – | – | inactive | inactive | 300 | – | inactive | Non-toxic
